Assay results: patent publication US20210022342A1, “THE USE OF SAFENERS TO IMPROVE RESISTANCE OF RICE CROP TO HERBICIDES” (Adama Agan Ltd., priority 2018, published 2021)

Columns and labels:
[1] = system: mutant rice (ML0831265-01493, ATCC deposit PTA-12933, mutation G2096S); test: Tank mixes of safeners with propaquizafop or quizalofop: regrowth of mutant rice; type: in vivo
Procedure: (§1) Seeds of a proprietary ACCase resistant rice variety, i.e. RTA1, was used. RTA1, ML0831265-01493 (ATCC deposit PTA-12933, mutation G2096S) variety rice seeds were supplied by RiceTec. RTA1 rice cultivar contains a single mutation in the ACCase gene that confer ACCase resistance. The mutation makes the enzyme insensitive to quizalofop.
(§2) Mutant rice seeds were planted in commercial greenhouse soil mix in 10×10×10 cm plastic pots. 250 mL of soil was put into each pot, then the seeds were placed on top of the soil and the seeds were covered with 100-150 mL of soil. Approximately 8-10 seeds were planted per pot. The pots were then watered with 100 mL of a mixture of Miracle Grow and Fertiplus (iron supplement). The pots were placed in the greenhouse (38° C./20° C. day/night, 14 h photoperiod with supplemental light). The average light intensity in the greenhouse was 150 μM/m^2/sec.
Plants were grown until 10 days after planting and then the pots were transferred to trays and the plants were grown under water. :Plants were treated when they reached the 3-5 leaf stage.
Safeners were tank mixed with the herbicide in the spray bottle.
(§3) Four days after treatment, the tops of the plants were cut off so that approximately 2.5 cm of plant from the top of the soil remain. The plants were allowed to regrow for 3 days at which time the amount of regrowth was weighed by measuring the amount of fresh weight of tissue that regrew. Comparing the weight of regrowth of shoots after cutting indicates the level of phytotoxicity the herbicide had on the mutant rice plant and the increased level of resistance of the mutant rice to the herbicide when the herbicide was applied in combination with the safener.
The safeners were applied in various w/w ratios with the ACCase inhibiting herbicides to the rice plant.

[2] = system: ACCase inhibitor resistant rice seeds (ML0831265-01493 (ATCC deposit PTA-12933, mutation G2096S)); test: Safener seed treatment with propaquizafop or quizalofop: regrowth of resistant rice; type: in vivo
Procedure: as §1, §2
Plants were grown until 10 days after planting and then the pots were transferred to trays and the plants were grown under water. :Plants were treated when they reached the 3-5 leaf stage. […]
as §3
The safeners were also applied in various w/w ratios of the ACCase inhibiting herbicides to the rice seeds.

[3] = tank mix with propaquizafop 50 g/ha, safener 12.5 g/ha
[4] = tank mix with propaquizafop 50 g/ha, safener 25 g/ha
[5] = tank mix with propaquizafop 50 g/ha, safener 50 g/ha
[6] = tank mix with propaquizafop 50 g/ha, safener 100 g/ha
[7] = tank mix with quizalofop 40 g/ha, safener 12.5 g/ha
[8] = tank mix with quizalofop 40 g/ha, safener 25 g/ha
[9] = tank mix with quizalofop 40 g/ha, safener 50 g/ha
[10] = tank mix with quizalofop 40 g/ha, safener 100 g/ha
[11] = propaquizafop, safener seed treatment 0.5 g/kg of seed
[12] = propaquizafop, safener seed treatment 1 g/kg of seed
[13] = propaquizafop, safener seed treatment 2 g/kg of seed
[14] = quizalofop, safener seed treatment 0.5 g/kg of seed
[15] = quizalofop, safener seed treatment 1 g/kg of seed
[16] = quizalofop, safener seed treatment 2 g/kg of seed

Compound | Regrowth (fresh weight mg) ([1]; propaquizafop 50 g/ha, no safener) [mg] | Regrowth (fresh weight mg) ([2]; propaquizafop, seeds without safener) [mg] | Regrowth (fresh weight mg) [1, 3] [mg] | Regrowth (fresh weight mg) [1, 4] [mg] | Regrowth (fresh weight mg) [1, 5] [mg] | Regrowth (fresh weight mg) [1, 6] [mg] | Regrowth (fresh weight mg) [1, 7] [mg] | Regrowth (fresh weight mg) [1, 8] [mg] | Regrowth (fresh weight mg) [1, 9] [mg] | Regrowth (fresh weight mg) [1, 10] [mg] | Regrowth (fresh weight mg) [2, 11] [mg] | Regrowth (fresh weight mg) [2, 12] [mg] | Regrowth (fresh weight mg) [2, 13] [mg] | Regrowth (fresh weight mg) [2, 14] [mg] | Regrowth (fresh weight mg) [2, 15] [mg] | Regrowth (fresh weight mg) [2, 16] [mg]
CC(C)=NOCCOC(=O)[C@@H](C)Oc1ccc(Oc2cnc3cc(Cl)ccc3n2)cc1 [Propaquizafop, (R)-2-[[(1-methylethylidene)amino]oxy]ethyl 2-[4-[(6-chloro-2-quinoxalinyl)oxy]phenoxy]propanoate] | 25 | 55 |  |  |  |  |  |  |  |  |  |  |  |  |  | 
O=C(C(Cl)Cl)N1CCOC12CCCCC2 [AD-67] |  |  | 68 | 222 | 288 | 512 | 202 | 292 | 348 | 505 | 173 | 113 | 170 | 233 | 285 | 298
CC1COc2ccccc2N1C(=O)C(Cl)Cl (centres unmarked) [Benzacor, benoxacor] |  |  |  |  |  |  |  |  |  |  | 37 | 107 | 98 | 90 | 72 | 78
O=C(O)COc1ccc(Cl)c2cccnc12 [Cloquinoce, cloquintocet] |  |  | 42 | 90 | 158 | 355 | 172 | 132 | 252 | 398 | 275 | 342 | 358 | 143 | 145 | 273
Clc1cc(Cl)nc(-c2ccccc2)n1 [Fenclorim, fenclorim] |  |  | 15 | 13 | 15 | 15 | 42 | 52 | 67 | 55 | 137 | 195 | 283 | 163 | 167 | 180
